Results published in patent publication US20130296346A1, “DIPHENYL-AMINE DERIVATIVES: USES, PROCESS OF SYNTHESIS AND PHARMACEUTICAL COMPOSITIONS” (Faes Farma, S.A., priority 2010, published 2013).

Legend:
[1] = Cytotoxicity for human non-tumoral cells, XTT; type: cell-based; details: HUVEC cells (primary, from human cords)
Procedure: The cytotoxicity of the compounds for human non-tumoral cells was studied in fibroblasts, HUVEC cells and resting PBLs (Peripheral Blood lymphocytes).
HUVEC cells were obtained by treating human cords with collagenase type I, […] in Hank's medium incubating 20 minutes at 37° C. Cells were collected afterwards and cultivated in medium M199 with supplements of 20% FBS, 1% P/S and 25 mg/500 ml of medium ECGF, Cells were grown on a 0.2% gelatin matrix.
Distinct amounts of exponentially growing cells were seeded in 96-well flat-bottomed microtiter plates in a final volume of 100 μl were seeded in 96-well flat-bottomed microtiter plates, and incubated at 37° C. in a humidified atmosphere of 5% CO2/95% air for 24 h to allow the cells attach to the plates. Then, cells were incubated with different concentrations of the assayed compound at 37° C. under the 5% CO2/95% air atmosphere for 72 h. Cell proliferation was quantified using the XTT cell proliferation kit (Roche Molecular Biochemicals, Mannheim, Germany) following the manufacturer's instructions. Briefly, a freshly prepared mixture solution (50 μl) of XTT labelling reagent and PMS (N-methyldibenzopyrazine methyl sulfate) electron coupling reagent was added to each well. The resulting mixtures were further incubated for 4 h in a humidified atmosphere (37° C., 5% CO2), and the absorbance of the formazan product generated was measured with a microtiter plate reader at a test wavelength of 490 nm and a reference wavelength of 655 nm. The IC50 (50% inhibitory concentration) was then calculated as the drug concentration causing a 50% inhibition of cell proliferation. Data are shown as mean values of four independent experiments each performed in triplicate.

EHEB (CLL) = assay: Apoptosis, sub-G1 peak by flow cytometry; type: cell-based, human; details: 10 μM, 24 h
Procedure: (§1) Incubation of Compound 3 with different human hematological cancer cell lines, including CLL, MM, acute T-cell and acute myeloid leukaemia cell lines, induced apoptosis, as assessed by the appearance of cells with a DNA content less than G1, characteristic of early apoptosis (sub-G1 peak; after 6-9 h treatment). More than 20% apoptosis was induced after 24 h treatment of 10 μM Compound 3 with EHEB (CLL), RPMI-8226 (MM), Jurkat (acute T-cell leukaemia) and HL-60 (acute myeloid leukaemia) cells.
(§2) Induction of apoptosis in EHEB cells by Compound 3 (FIG. 7A): EHEB cells were incubated for the indicated times with 10 μM Compound 3, and apoptosis was then quantitated as percentage of cells in the sub-G1 region in cell cycle analysis by flow cytometry. The position of the sub-G1 peak (hypodiploidy), integrated by apoptotic cells, as well as the G0/G1 and G2/M peaks are indicated by arrows. Untreated control cells were run in parallel. The percentage of cells with a DNA content less than G1 (sub-G1) is indicated in each histogram. The experiment shown is representative of three performed. Briefly, cells (5×10^5) were centrifuged and fixed overnight in 70% ethanol at 4° C. Cells were washed 3 times with PBS, incubated for 1 h with 1 mg/ml RNaseA and 20 μg/ml propidium iodide at room temperature, and then analyzed for cell cycle with a Becton Dickinson FACS Calibur flow cytometer (San Jose, Calif.). Quantitation of apoptotic cells was calculated as the percentage of cells in the sub-G1 region (hypodiploidy) in cell cycle analysis.

[2] = tested on: HL-60 (acute myeloid leukaemia); assay: Apoptosis, sub-G1 peak by flow cytometry; type: cell-based, human; details: 10 μM, 24 h
Procedure: as §1, §2

RPMI-8226 (MM) = assay: Apoptosis, sub-G1 peak by flow cytometry; type: cell-based, human; details: 10 μM, 24 h
Procedure: as §1, §2

[3] = tested on: Jurkat (acute T-cell leukaemia); assay: Apoptosis, sub-G1 peak by flow cytometry; type: cell-based, human; details: 10 μM, 24 h
Procedure: as §1, §2

B16 melanoma mouse cells = assay: Melanoma orthotopic animal model; type: in vivo; details: 30 mg/kg intraperitoneal
Procedure: Compound 3 dose was 30 mg/kg intraperitoneal in all of these experiments.
FIG. 5A represents a PET picture of melanoma tumor luciferase activity in vivo. The intensity of the signal is higher on tumours with more proliferative cells. […] FIG. 5C is a graph showing melanoma tumor weight after control or Compound 3 treatment. 4 different and independent experiments with n=4 animals per group were carried out.

HCT-116 and SW620 cells = assay: Expression of apoptosis-related proteins by immunoblotting; type: cell-based, human; details: colon carcinoma cells, 10 μM
Procedure: Induction of apoptosis in human colon cancer HCT-116 cell line by Compound 3 (FIG. 8A). The induction of apoptosis was quantitated as the percentage of cells in the sub-G1 region (hypodiplody) of cell cycle analysis. Briefly, cells (5×10^5) were centrifuged and fixed overnight in 70% ethanol at 4° C. Cells were washed 3 times with PBS, incubated for 1 h with 1 mg/ml RNaseA and 20 μg/ml propidium iodide at room temperature, and then analyzed for cell cycle with a Becton Dickinson FACSCalibur flow cytometer (San Jose, Calif.). HCT-116 cells were incubated for the indicated times with 10 μM Compound 3, and apoptosis was then quantitated as percentage of cells in the sub-G1 region in cell cycle analysis by flow cytometry. The position of the sub-G1 peak (hypodiploidy), integrated by apoptotic cells, as well as the G0/G1 and G2/M peaks are indicated by arrows. Untreated control cells were run in parallel. The percentage of cells with a DNA content less than G1 (sub-G1) is indicated in each histogram. The experiment shown is representative of three performed Expression of different apoptosis-related proteins during Compound 3 treatment (FIG. 8B), HCT-116 and SW620 cells were treated with 10 μM Compound 3 for the indicated times and analyzed by immunoblotting with specific antibodies for the indicated proteins. The migration positions of the different proteins are indicated. β-actin was used as a loading control. Data shown are representative of three experiments performed. About 10^7 cells were pelleted by centrifugation, washed with PBS, and lysed. […]

Fc1ccc(CNCCCC=C(c2ccccc2)c2ccccc2)cc1 [Compound 3, (5,5-diphenyl-pent-4-enyl)-(4-fluoro-benzyl)-amine hydrocloride]
IC50 at 72 h [1]: 16 µM | apoptosis (EHEB (CLL)): More than 20% | apoptosis [2]: More than 20% | apoptosis (RPMI-8226 (MM)): More than 20% | apoptosis [3]: More than 20% | in vivo antitumor activity, melanoma (B16 melanoma mouse cells): potent in vivo antitumor activity | caspase-9 (HCT-116 and SW620 cells): induction | expression of Mcl-1S (HCT-116 and SW620 cells): induced the expression | protein level of p53 (HCT-116 and SW620 cells): increased
